Experiment [1] deals with Plasmodium species. Particulars: Hariri 1976; cited from earlier work.
For experiment [2], the system named is Cryptococcus neoformans. Particulars: Hariri 1976; cited from earlier work.
Experiment [3] deals with Cryptococcus neoformans. Particulars: Hariri 1976, cited from earlier work.
The subject of experiment [4] is Candida albicans (10231). Put plainly: Broth dilution assay, F1. In kind it is cell-based. The protocol: (§1) Both broth dilution and agar dilution assays were used to assess the antifungal activity of the compounds of the invention. The cultures were maintained in Sabouraud dextrose broth (SDB) and diluted with […]. 2.5 l of SDB was prepared and distributed into sterile vessels as follows: 49 ml into 1 vessel, 27 ml into 3 vessels, 45 ml into 2 vessels.
(§2) Five mg/ml concentration of each compound was prepared using DMSO as the solvent; warming and sonication were necessary to dissolve each compound completely. The compounds were then diluted in SDB according to the following protocol:
(§3) 5. 1 ug/ml--5 ml (3)+45 ml SDB
(§4) The compound at each concentration in SDB was then dispensed into 6 tubes each containing 4 ml […]. Controls (without any compound) were also prepared to insure that the solvent itself was not fungicidal or fungistatic.
(§5) Cultures were grown in SDB for 24 h at 30° C. C. albicans and C. neoformans were diluted 1:10 in SDB before inoculation. Inoculation volume for yeasts was 2 drops of diluted cells per tube. The fungal cultures were homogenized before inoculation. The same volume was added, but without dilution. All tubes were incubated at room temperature on a rotating wheel. After 16 h of incubation at room temperature, the fungistatic assay was set up on agar plates. […] Yeasts were inoculated onto SDA (the corresponding agar) plates and fungi onto mycosel agar plates. These plates were then incubated at room temperature.

For experiment [5], the system named is Cryptococcus neoformans (13690). Put plainly: Broth dilution assay, F3. In kind it is cell-based. The protocol:
as §1, §2, §3, §4, §5
Background: Broth dilution looks for growth in wells or tubes with falling amounts of substance.

Experiment [6] concerns Penicillium citrinum (9849). Put plainly: Broth dilution assay, F19. In kind it is cell-based. The protocol:
as §1, §2, §3, §4, §5

Experiment [7] deals with Microsporum gypseum (14683). Description: Broth dilution assay, F12. In kind it is cell-based. The conditions noted are these: Nannizzia gypsea. The protocol:
as §1, §2, §3, §4, §5

Experiment [8] deals with fungi. Put plainly: Broth dilution assay, whole panel. In kind it is cell-based. Particulars: Tables 1 and 2. On the procedure: as §1, §2, §3, §4
Cultures were grown in SDB for 24 h at 30° C. C. albicans and C. neoformans were diluted 1:10 in SDB before inoculation. Inoculation volume for yeasts was 2 drops of diluted cells per tube. The fungal cultures were homogenized before inoculation. The same volume was added, but without dilution. All tubes were incubated at room temperature on a rotating wheel. After 16 h of incubation at room temperature, the fungistatic assay was set up on agar plates. […] Yeasts were inoculated onto SDA (the corresponding agar) plates and fungi onto mycosel agar plates. […]

Experiment [9] relates to Trichophyton mentagrophytes (11481). Description: Broth dilution assay, F6. In kind it is cell-based. On the procedure:
as §1, §2, §3, §4, §5

Experiment [10] has as its system Epidermophyton floccosum (15693). Description: Broth dilution assay, F4. In kind it is cell-based. On the procedure:
as §1, §2, §3, §4, §5

Experiment [11] deals with Candida albicans (14053). Description: Broth dilution assay, F2. In kind it is cell-based. The protocol: as §1, §2, §3, §4, §5
Experiment [12] relates to Candida species. Particulars: with SMX, against Candida; Castaldo 1979; cited from earlier work.

Each structure is given as a SMILES string. Converted amounts (≈) assume the structure as drawn. Like-named read-outs stand apart in the source and are kept apart here. A value given as a limit tells only on which side of the number the result lay.

These results are taken from patent US4818753A, “Synthesis and method of use for 2, 4 diaminoquinazoline” (SRI International, priority 1987, dated 1989).

On to `Nc1nc(N)c2cc(NC(=O)Cc3ccc(Cl)c(Cl)c3)ccc2n1` [2,4-diamino-6-(2-(3,4-dichlorophenyl)acetamido)quinazoline], for which the “activity against Plasmodium” value in [1] is listed as “no activity”. Further, the in vivo activity entry in [2] was “active in vitro and in vivo”. The “minimum inhibitory concentration (MIC)” value in [3] (C. neoformans) is 6 to 8 µg/mL. Also, the in vitro activity entry in experiment [3] (in vitro) is “active in vitro and in vivo”.

Regarding `CCCCCCc1ccc2nc(N)nc(N)c2c1C` [--CH2 (CH2)4 CH3, 2,4-Diamino-5-methyl-6-n-hexylquinazoline], the MIC in experiment [4] (Table 1, F1, Sabouraud Dextrose Broth pH 5.5, read-out: Minimum Inhibitory Concentration (S, fungistatic)) was found to be 30 µg/mL (≈ 116 µM); in experiment [4] (Table 2, F1, Sabouraud Dextrose Broth pH 5.5, read-out: S Fungistatic), 30 µg/mL (≈ 116 µM); in experiment [5] (Table 1, F3, Sabouraud Dextrose Broth pH 5.5, read-out: Minimum Inhibitory Concentration (S, fungistatic)) it was 3 µg/mL (≈ 11.6 µM); in [5] (Table 2, F3, Sabouraud Dextrose Broth pH 5.5, read-out: S Fungistatic) it was 3 µg/mL (≈ 11.6 µM); in [6] (Table 1, F19, Sabouraud Dextrose Broth pH 5.5, read-out: Minimum Inhibitory Concentration (S, fungistatic)) it was 100 µg/mL (≈ 387 µM); in experiment [7] (Table 1, Sabouraud Dextrose Broth pH 5.5, read-out: Minimum Inhibitory Concentration (S, fungistatic)), 10 µg/mL (≈ 38.7 µM). The MIC in experiment [7] (Table 2, Sabouraud Dextrose Broth pH 5.5, read-out: S Fungistatic) came out at 30 µg/mL (≈ 116 µM); in experiment [9] (Table 1, F6, Sabouraud Dextrose Broth pH 5.5, read-out: Minimum Inhibitory Concentration (S, fungistatic)) it was 30 µg/mL (≈ 116 µM); in experiment [9] (Table 2, F6, Sabouraud Dextrose Broth pH 5.5, read-out: S Fungistatic) it was 30 µg/mL (≈ 116 µM); in [10] (Table 1, F4, Sabouraud Dextrose Broth pH 5.5, read-out: Minimum Inhibitory Concentration (S, fungistatic)), 3 µg/mL (≈ 11.6 µM); in experiment [11] (Table 1, F2, Sabouraud Dextrose Broth pH 5.5, read-out: Minimum Inhibitory Concentration (S, fungistatic)) it was 30 µg/mL (≈ 116 µM). The MFC in [4] (Table 1, F1, Sabouraud Dextrose Broth pH 5.5, read-out: Minimum Lethal Concentration (C, fungicidal)) was 30 µg/mL (≈ 116 µM); in experiment [4] (Table 2, F1, Sabouraud Dextrose Broth pH 5.5, read-out: C Fungicidal) it was greater than 100 µg/mL; in experiment [5] (Table 1, F3, Sabouraud Dextrose Broth pH 5.5, read-out: Minimum Lethal Concentration (C, fungicidal)), 10 µg/mL (≈ 38.7 µM); in experiment [5] (Table 2, F3, Sabouraud Dextrose Broth pH 5.5, read-out: C Fungicidal), 3 µg/mL (≈ 11.6 µM); in experiment [6] (Table 1, F19, Sabouraud Dextrose Broth pH 5.5, read-out: Minimum Lethal Concentration (C, fungicidal)), 100 µg/mL (≈ 387 µM); in experiment [7] (Table 1, Sabouraud Dextrose Broth pH 5.5, read-out: Minimum Lethal Concentration (C, fungicidal)) it was 30 µg/mL (≈ 116 µM). Moreover, the MFC in [7] (Table 2, Sabouraud Dextrose Broth pH 5.5, read-out: C Fungicidal) was 100 µg/mL (≈ 387 µM); in experiment [9] (Table 1, F6, Sabouraud Dextrose Broth pH 5.5, read-out: Minimum Lethal Concentration (C, fungicidal)) it was greater than 30 µg/mL; in [9] (Table 2, F6, Sabouraud Dextrose Broth pH 5.5, read-out: C Fungicidal) it was 30 µg/mL (≈ 116 µM); in experiment [10] (Table 2, F4, Sabouraud Dextrose Broth pH 5.5, read-out: C Fungicidal), 30 µg/mL (≈ 116 µM); in experiment [11] (Table 1, F2, Sabouraud Dextrose Broth pH 5.5, read-out: Minimum Lethal Concentration (C, fungicidal)) it was 30 µg/mL (≈ 116 µM). Also, the “fungicidal and fungistatic activity in words” value in experiment [8] is “best fungicidal and fungistatic activity”.

Regarding `Nc1nc(N)c2c(ccc3c2ccn3CC2CC2)n1` [N-cyclopropylmethyl-5,6-pyrrolo-2,4-diaminoquinazoline], in experiment [12], the “synergistic activity in presence of sulfamethoxazole (SMX)” value is reported as “synergistic activity”.
